Patent US10251394B2, “Molecules having pesticidal utility, and intermediates, compositions, and processes, related thereto” (Dow AgroSciences LLC, priority 2016, dated 2019)

How the values were obtained:
Format in all cases: in vivo
[1] = test system: Beet Armyworm (Spodoptera exigua); test: Bioassay on Beet Armyworm (BAW), 128-well diet tray assay; conditions: Beet Armyworm, Table ABC, read-out: BAW rating
Summary of the method: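 Second-instar larvae (one to five per well) placed on artificial diet surface-treated with 50 μg/cm^2 test molecule in 90:10 acetone-water, dried, eight wells per molecule. Held at 25° C, 14:10 light-dark, five to seven days; percent mortality recorded per well and averaged across the eight wells.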

[2] = test system: Yellow Fever Mosquito (Aedes aegypti); test: Bioassay on Yellow Fever Mosquito (YFM) larvae, 96-well plate; conditions: Table ABC
Description: Example C: Bioassays on Yellow Fever Mosquito (Aedes Aegypti, AEDSAE) (“YFM”)
Certain molecules disclosed in this document were tested against YFM using procedures described in the following paragraph. In the reporting of the results, the “GPA & YFM Rating Table” was used (See Table Section).
Master plates containing 400 μg of a molecule dissolved in 100 μL of dimethyl sulfoxide (DMSO) (equivalent to a 4000 ppm solution) are used. A master plate of assembled molecules contains 15 μL per well. To this plate, 135 μL of a 90:10 water:acetone mixture is added to each well. A robot (Biomek® NXP Laboratory Automation Workstation) is programmed to dispense 15 μL aspirations from the master plate into an empty 96-well shallow plate (“daughter” plate). There are 6 reps (“daughter” plates) created per master. The created daughter plates are then immediately infested with YFM larvae.
The day before plates are to be treated, mosquito eggs are placed in Millipore water containing liver powder to begin hatching (4 g. into 400 mL). After the daughter plates are created using the robot, they are infested with 220 μL of the liver powder/larval mosquito mixture (about 1 day-old larvae). After plates are infested with mosquito larvae, a non-evaporative lid is used to cover the plate to reduce drying. Plates are held at room temperature for 3 days prior to grading. After 3 days, each well is observed and scored based on mortality. The results are indicated in the table entitled “Table ABC: Biological Results” (See Table Section).

[3] = test system: Cabbage Looper (Trichoplusia ni); test: Bioassay on Cabbage Looper (CL), 128-well diet tray assay; conditions: Cabbage Looper, Table ABC, read-out: CL rating
Summary of the method: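 Second-instar larvae, one to five per well, placed on artificial diet surface-treated with 50 μg/cm^2 compound in acetone-water, eight wells per compound. Held 5-7 days at 25° C, 14:10 light-dark; percent mortality per well averaged across wells.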

| Compound | pest or weed control at 50 µg/cm2 [1] [%] | YFM rating [2] | pest or weed control at 50 µg/cm2 [3] [%] |
| --- | --- | --- | --- |
| C[C@@H](NC(=O)c1ccc(/C(F)=C/C(c2ccc(Br)c(Br)c2)C(F)(F)F)cc1C(F)(F)F)C(=O)NCC(F)(F)F (stereo partly drawn) [F79, 4-((Z)-3-(3,4-Dibromophenyl)-1,4,4,4-tetrafluorobut-1-en-1-yl)-N—((R)-1-oxo-1-((2,2,2-trifluoroethyl)amino)propan-2-yl)-2-(trifluoromethyl)benzamide] | 50 to 100 | A (80-100) | 50 to 100 |
| O=C(NC1(C(=O)NCC(F)(F)F)CC1)c1ccc(/C(F)=C/C(c2ccc(Br)c(Br)c2)C(F)(F)F)cc1C(F)(F)F (stereo not drawn) [F80, (Z)-4-(3-(3,4-Dibromophenyl)-1,4,4,4-tetrafluorobut-1-en-1-yl)-N-(1-((2,2,2-trifluoroethyl)carbamoyl)cyclopropyl)-2-(trifluoromethyl)benzamide] | 50 to 100 | A (80-100) | 50 to 100 |
| C[C@@H](NC(=O)c1ccc(/C(F)=C/C(c2cc(Cl)c(F)c(Cl)c2)C(F)(F)F)cc1C(F)(F)F)C(=O)N(C)CC(F)(F)F (stereo partly drawn) [F81, 4-((Z)-3-(3,5-Dichloro-4-fluorophenyl)-1,4,4,4-tetrafluorobut-1-en-1-yl)-N—((R)-1-(methyl(2,2,2-trifluoroethyl)amino)-1-oxopropan-2-yl)-2-(trifluoromethyl)benzamide] | 50 to 100 | A (80-100) | 50 to 100 |
| CN(CC(F)(F)F)C(=O)CNC(=O)c1ccc(/C(F)=C/C(c2cc(Cl)c(F)c(Cl)c2)C(F)(F)F)cc1C(F)(F)F (stereo not drawn) [F82, (Z)-4-(3-(3,5-Dichloro-4-fluorophenyl)-1,4,4,4-tetrafluorobut-1-en-1-yl)-N-(2-(methyl(2,2,2-trifluoroethyl)amino)-2-oxoethyl)-2-(trifluoromethyl)benzamide] | 50 to 100 | A (80-100) | 50 to 100 |
| C[C@@H](NC(=O)c1ccc(/C(F)=C/C(c2cc(Br)cc(Br)c2)C(F)(F)F)cc1C(F)(F)F)C(=O)N(C)CC(F)(F)F (stereo partly drawn) [F83, 4-((Z)-3-(3,5-Dibromophenyl)-1,4,4,4-tetrafluorobut-1-en-1-yl)-N—((R)-1-(methyl(2,2,2-trifluoroethyl)amino)-1-oxopropan-2-yl)-2-(trifluoromethyl)benzamide] | 50 to 100 | A (80-100) | 50 to 100 |
| CN(CC(F)(F)F)C(=O)CNC(=O)c1ccc(/C(F)=C/C(c2cc(Br)cc(Br)c2)C(F)(F)F)cc1C(F)(F)F (stereo not drawn) [F84, (Z)-4-(3-(3,5-Dibromophenyl)-1,4,4,4-tetrafluorobut-1-en-1-yl)-N-(2-(methyl(2,2,2-trifluoroethyl)amino)-2-oxoethyl)-2-(trifluoromethyl)benzamide] | 50 to 100 | A (80-100) | 50 to 100 |
| C=Cc1c(Cl)cc(C(/C=C(\F)c2ccc(C(=O)NCC(=O)N(C)CC(F)(F)F)c(C(F)(F)F)c2)C(F)(F)F)cc1Cl (stereo not drawn) [F85, (Z)-4-(3-(3,5-Dichloro-4-vinylphenyl)-1,4,4,4-tetrafluorobut-1-en-1-yl)-N-(2-(methyl(2,2,2-trifluoroethyl)amino)-2-oxoethyl)-2-(trifluoromethyl)benzamide] | 50 to 100 | A (80-100) | 50 to 100 |
| C=Cc1c(Cl)cc(C(/C=C(\F)c2ccc(C(=O)N[C@H](C)C(=O)N(C)CC(F)(F)F)c(C(F)(F)F)c2)C(F)(F)F)cc1Cl (stereo partly drawn) [F86, 4-((Z)-3-(3,5-Dichloro-4-vinylphenyl)-1,4,4,4-tetrafluorobut-1-en-1-yl)-N—((R)-1-(methyl(2,2,2-trifluoroethyl)amino)-1-oxopropan-2-yl)-2-(trifluoromethyl)benzamide] | 50 to 100 | A (80-100) | 50 to 100 |
| CN(CC(F)(F)F)C(=O)CN(C)C(=O)c1ccc(/C(F)=C/C(c2cc(Cl)c(Cl)c(Cl)c2)C(F)(F)F)cc1C(F)(F)F (stereo not drawn) [F99, (Z)—N-Methyl-N-(2-(methyl(2,2,2-trifluoroethyl)amino)-2-oxoethyl)-4-(1,4,4,4-tetrafluoro-3-(3,4,5-trichlorophenyl)but-1-en-1-yl)-2-(trifluoromethyl)benzamide] | 50 to 100 | A (80-100) | 50 to 100 |
| Cc1cc(C(/C=C(\F)c2ccc(C(=O)N[C@H](C)C(=O)N(C)CC(F)(F)F)c(C(F)(F)F)c2)C(F)(F)F)cc(C)c1Cl (stereo partly drawn) [F102, 4-((Z)-3-(4-Chloro-3,5-dimethylphenyl)-1,4,4,4-tetrafluorobut-1-en-1-yl)-N—((R)-1-(methyl(2,2,2-trifluoroethyl)amino)-1-oxopropan-2-yl)-2-(trifluoromethyl)benzamide] | 50 to 100 | A (80-100) | 50 to 100 |
| Cc1cc(C(/C=C(\F)c2ccc(C(=O)NCC(=O)N(C)CC(F)(F)F)c(C(F)(F)F)c2)C(F)(F)F)cc(C)c1Cl (stereo not drawn) [F103, (Z)-4-(3-(4-Chloro-3,5-dimethylphenyl)-1,4,4,4-tetrafluorobut-1-en-1-yl)-N-(2-(methyl(2,2,2-trifluoroethyl)amino)-2-oxoethyl)-2-(trifluoromethyl)benzamide] | 50 to 100 | B (More than 0-Less than 80) | 50 to 100 |
| C=Cc1c(Cl)cc(C(/C=C(\F)c2ccc(C(=O)NC3(C(=O)NCC(F)(F)F)CC3)c(C(F)(F)F)c2)C(F)(F)F)cc1Cl (stereo not drawn) [F113, (Z)-4-(3-(3,5-Dichloro-4-vinylphenyl)-1,4,4,4-tetrafluorobut-1-en-1-yl)-N-(1-((2,2,2-trifluoroethyl)carbamoyl)cyclopropyl)-2-(trifluoromethyl)benzamide] | 50 to 100 | A (80-100) | 50 to 100 |
| CN(CC(F)(F)F)C(=O)C1(NC(=O)c2ccc(/C(F)=C/C(c3cc(Cl)c(F)c(Cl)c3)C(F)(F)F)cc2C(F)(F)F)CC1 (stereo not drawn) [F114, (Z)-4-(3-(3,5-Dichloro-4-fluorophenyl)-1,4,4,4-tetrafluorobut-1-en-1-yl)-N-(1-(methyl(2,2,2-trifluoroethyl)carbamoyl)cyclopropyl)-2-(trifluoromethyl)benzamide] | 50 to 100 | A (80-100) | 50 to 100 |
| CN(CC(F)(F)F)C(=O)C1(NC(=O)c2ccc(/C(F)=C/C(c3cc(Cl)cc(Cl)c3)C(F)(F)F)cc2C(F)(F)F)CC1 (stereo not drawn) [F115, (Z)-4-(3-(3,5-Dichlorophenyl)-1,4,4,4-tetrafluorobut-1-en-1-yl)-N-(1-(methyl(2,2,2-trifluoroethyl)carbamoyl)cyclopropyl)-2-(trifluoromethyl)benzamide] | 50 to 100 | B (More than 0-Less than 80) | 50 to 100 |
| O=C(NC1(C(=O)NCC(F)(F)F)CC1)c1ccc(/C(F)=C/C(c2cc(Cl)cc(Br)c2)C(F)(F)F)cc1C(F)(F)F (stereo not drawn) [F116, (Z)-4-(3-(3-Bromo-5-chlorophenyl)-1,4,4,4-tetrafluorobut-1-en-1-yl)-N-(1-((2,2,2-trifluoroethyl)carbamoyl)cyclopropyl)-2-(trifluoromethyl)benzamide] | 50 to 100 | A (80-100) | 50 to 100 |
| CN(CC(F)(F)F)C(=O)C1(NC(=O)c2ccc(/C(F)=C/C(c3cc(Br)c(Cl)c(Br)c3)C(F)(F)F)cc2C(F)(F)F)CC1 (stereo not drawn) [F118, (Z)-4-(3-(4-Dibromo-4-chlorophenyl)-1,4,4,4-tetrafluorobut-1-en-1-yl)-N-(1-(methyl(2,2,2-trifluoroethyl)carbamoyl)cyclopropyl)-2-(trifluoromethyl)benzamide] | 50 to 100 | B (More than 0-Less than 80) | 50 to 100 |
| Cc1cc(C(/C=C(\F)c2ccc(C(=O)NC3(C(=O)N(C)CC(F)(F)F)CC3)c(C(F)(F)F)c2)C(F)(F)F)cc(C)c1Cl (stereo not drawn) [F119, (Z)-4-(3-(4-Chloro-3,5-dimethylphenyl)-1,4,4,4-tetrafluorobut-1-en-1-yl)-N-(1-(methyl(2,2,2-trifluoroethyl)carbamoyl)cyclopropyl)-2-(trifluoromethyl)benzamide] | 50 to 100 | B (More than 0-Less than 80) | 50 to 100 |
| CN(CC(F)(F)F)C(=O)C1(NC(=O)c2ccc(/C(F)=C/C(c3ccc(Cl)c(Cl)c3)C(F)(F)F)cc2C(F)(F)F)CC1 (stereo not drawn) [F120, (Z)-4-(3-(3,4-Dichlorophenyl)-1,4,4,4-tetrafluorobut-1-en-1-yl)-N-(1-(methyl(2,2,2-trifluoroethyl)carbamoyl)cyclopropyl)-2-(trifluoromethyl)benzamide] | 50 to 100 | B (More than 0-Less than 80) | 50 to 100 |
